Results taken from ChEMBL document CHEMBL1201862, “PubChem BioAssay data set” (2004).
The source made the active and inactive calls.

Tests used:
[1] = molecular target: T1, Bcl-2-like protein 10 (Homo sapiens, UniProt Q9HD36); experiment: displacers of TR3 peptide from Bcl-B, primary screen, selectivity assay for Bfl-1 inhibitor project, biochemical, fluorescence polarization, FITC-TR3 peptide (AID 748);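 also: fluorescence polarization from a fluorescein-labelled TR3 peptide binding purified Bcl-B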
T1 sequence (Q9HD36 whole entry): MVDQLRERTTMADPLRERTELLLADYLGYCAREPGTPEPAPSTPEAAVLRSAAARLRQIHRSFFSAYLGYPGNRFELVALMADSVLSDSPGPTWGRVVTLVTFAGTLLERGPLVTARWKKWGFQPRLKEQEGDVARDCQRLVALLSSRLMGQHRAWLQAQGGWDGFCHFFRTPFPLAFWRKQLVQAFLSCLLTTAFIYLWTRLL

[2] = molecular target: Alkaline phosphatase, placental type (Homo sapiens, UniProt P05187); experiment: PLAP enzyme inhibitors, confirmation, biochemical, luminescence (AID 1512); type: functional
[3] = molecular target: T2, Alkaline phosphatase, tissue-nonspecific isozyme (Homo sapiens, UniProt P05186); experiment: human TNAP enzyme inhibitors, SAR follow-up, biochemical, luminescent, dose response (AID 1056)
T2 sequence (P05186 whole entry): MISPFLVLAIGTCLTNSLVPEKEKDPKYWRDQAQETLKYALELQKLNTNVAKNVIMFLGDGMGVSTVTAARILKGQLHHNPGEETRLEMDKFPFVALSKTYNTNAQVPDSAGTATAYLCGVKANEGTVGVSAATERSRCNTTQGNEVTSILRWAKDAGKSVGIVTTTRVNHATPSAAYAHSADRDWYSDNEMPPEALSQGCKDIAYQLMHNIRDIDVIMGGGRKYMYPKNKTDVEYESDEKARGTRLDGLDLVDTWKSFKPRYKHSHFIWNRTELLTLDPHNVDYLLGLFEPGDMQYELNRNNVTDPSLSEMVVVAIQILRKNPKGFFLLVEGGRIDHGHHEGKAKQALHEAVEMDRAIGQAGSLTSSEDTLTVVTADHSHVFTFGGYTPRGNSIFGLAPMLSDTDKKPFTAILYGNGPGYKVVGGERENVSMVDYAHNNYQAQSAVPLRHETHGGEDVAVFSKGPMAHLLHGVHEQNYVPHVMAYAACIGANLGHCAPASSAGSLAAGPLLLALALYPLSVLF

[4] = cytotoxicity in HEK-293T cells, dose response, cytotoxicity control for BCR NF-kB inhibitor project, luminescence, B-cell screen hits (AID 489021); type: functional, cell-based;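 also: HEK-293T cells carrying an NF-kB luciferase reporter; cells exposed to compound for about 14 hours before viability readout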
[5] = molecular target: Nonstructural protein 1 (Influenza A virus, UniProt Q194T2); type: functional, Influenza A virus (A/California/07/2009(H1N1))
[6] = cells; type: functional
[7] = THP-1 cell cytotoxicity, dose response, cytotoxicity control for non-replicating M. tuberculosis project (AID 489025); type: functional
[8] = tested on: HEK293; experiment: cells; type: functional, cell-based; settings: Homo sapiens
[9] = HepG2 cell cytotoxicity, dose response, cytotoxicity control for Shn3 inhibitor project, CellTiter-Glo, cherry-picked (AID 624134); type: functional, cell-based
[10] = tested on: HEK293; experiment: cells; type: functional, cell-based; settings: Homo sapiens; remark: listed apart in the source
[11] = tested on: HEK293; experiment: NOD2 signaling inhibitors in MDP-stimulated cells, cell-based, uHTS, luminescence (AID 2001); type: functional; settings: Homo sapiens
[12] = molecular target: Nucleotide-binding oligomerization domain-containing protein 2 (Homo sapiens, UniProt Q9HC29); experiment: NOD2 signaling inhibitors, cell-based, luminescence, uHTS, HEK293 (AID 1566); type: functional
[13] = tested on: HEK293; experiment: cells; type: functional, cell-based; settings: Homo sapiens; remark: listed apart in the source
[14] = Shn3 3'UTR reporter inhibitors, dose response, cell-based, Clone20 osteoblasts, firefly luciferase, cherry-picked (AID 624132); type: functional;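 also: firefly luciferase luminescence from reporter carrying the Shn3 3'UTR in osteoblasts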
[15] = molecular target: Tumor necrosis factor (Homo sapiens, UniProt P01375); experiment: TNFa-triggered NF-kB activation inhibitors, SAR follow-up, cell-based, revised (AID 2337); type: functional
[16] = molecular target: T3, Nucleotide-binding oligomerization domain-containing protein 1 (Homo sapiens, UniProt Q9Y239); experiment: NOD1 signaling inhibitors, SAR follow-up, revised (AID 2333); type: functional
T3 sequence (Q9Y239 whole entry): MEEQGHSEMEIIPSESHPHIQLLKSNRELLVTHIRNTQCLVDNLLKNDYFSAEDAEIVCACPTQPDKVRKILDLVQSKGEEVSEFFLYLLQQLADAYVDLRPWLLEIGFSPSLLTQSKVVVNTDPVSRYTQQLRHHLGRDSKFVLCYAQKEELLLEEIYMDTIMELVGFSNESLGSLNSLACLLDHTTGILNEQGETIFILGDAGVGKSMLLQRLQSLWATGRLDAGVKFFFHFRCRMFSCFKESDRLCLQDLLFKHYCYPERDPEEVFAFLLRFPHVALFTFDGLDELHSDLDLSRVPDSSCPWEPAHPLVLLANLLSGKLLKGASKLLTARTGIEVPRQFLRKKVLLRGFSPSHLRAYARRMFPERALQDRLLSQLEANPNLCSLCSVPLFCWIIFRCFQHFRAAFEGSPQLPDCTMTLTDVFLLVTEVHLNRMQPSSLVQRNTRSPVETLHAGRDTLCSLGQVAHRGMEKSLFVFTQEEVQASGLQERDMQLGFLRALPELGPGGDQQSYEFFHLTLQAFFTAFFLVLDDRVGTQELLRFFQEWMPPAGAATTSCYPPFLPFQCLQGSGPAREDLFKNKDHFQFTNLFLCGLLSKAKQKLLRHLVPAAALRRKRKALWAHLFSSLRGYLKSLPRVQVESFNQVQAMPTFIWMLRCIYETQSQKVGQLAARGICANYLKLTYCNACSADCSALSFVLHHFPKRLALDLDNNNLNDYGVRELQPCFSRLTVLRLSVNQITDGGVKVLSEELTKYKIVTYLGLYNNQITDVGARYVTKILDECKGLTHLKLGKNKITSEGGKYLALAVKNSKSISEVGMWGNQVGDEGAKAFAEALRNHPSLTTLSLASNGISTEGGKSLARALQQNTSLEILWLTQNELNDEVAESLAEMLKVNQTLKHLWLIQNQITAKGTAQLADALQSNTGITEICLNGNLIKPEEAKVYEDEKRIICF

[17] = control 3'UTR Renilla luciferase suppression, dose response, counter-screen for Shn3 inhibitor project, cell-based, Clone20-Shn3RL, cherry-picked (AID 624133); type: functional
[18] = tested on: HEK293; experiment: NOD1 signaling inhibitors, primary screen, cell-based, luminescence, uHTS (AID 1578); type: functional; settings: Homo sapiens
[19] = tested on: HEK293; experiment: cells; settings: Homo sapiens
[20] = molecular target: Cytochrome P450 2D6 (Homo sapiens, UniProt P10635); experiment: qHTS Assay for Inhibitors and Substrates of Cytochrome P450 2D6. [Related pubchem assays: 410 ]; type: ADME; settings: read-out: Potency
[21] = molecular target: T4, Bifunctional protein GlmU (Mycobacterium tuberculosis, UniProt P9WMN3); experiment: Inhibitors of Mycobacterial Glucosamine-1-phosphate acetyl transferase (GlmU). Secondary screen.; parameters: species or system Mycobacterium tuberculosis H37Rv
T4 sequence (P9WMN3 whole entry): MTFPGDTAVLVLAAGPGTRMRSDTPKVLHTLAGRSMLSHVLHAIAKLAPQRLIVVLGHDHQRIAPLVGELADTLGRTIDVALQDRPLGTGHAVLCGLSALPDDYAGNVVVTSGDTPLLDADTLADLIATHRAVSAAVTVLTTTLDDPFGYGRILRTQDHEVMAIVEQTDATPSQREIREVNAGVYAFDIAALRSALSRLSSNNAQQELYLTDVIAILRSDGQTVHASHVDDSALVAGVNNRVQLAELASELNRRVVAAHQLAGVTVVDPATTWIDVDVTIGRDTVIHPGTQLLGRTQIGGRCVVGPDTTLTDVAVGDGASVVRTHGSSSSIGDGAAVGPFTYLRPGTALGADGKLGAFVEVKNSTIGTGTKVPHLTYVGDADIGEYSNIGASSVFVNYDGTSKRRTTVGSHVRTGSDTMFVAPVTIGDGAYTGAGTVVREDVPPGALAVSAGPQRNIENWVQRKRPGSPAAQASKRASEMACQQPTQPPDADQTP

[22] = molecular target: T5, Estrogen receptor beta (Homo sapiens, UniProt Q92731); experiment: ERβ–SRC-3 coactivator interaction inhibitors, confirmation, orthogonal assay, biochemical, ELISA, streptavidin-HRP readout (AID 1060)
[23] = molecular target: T5, Estrogen receptor beta
[24] = molecular target: Peroxisome proliferator-activated receptor gamma/Nuclear receptor coactivator 2 (Homo sapiens, UniProt P37231); type: functional;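 also: agonist potency for raising coactivator recruitment to the receptor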
[25] = molecular target: Peroxisome proliferator-activated receptor gamma/Nuclear receptor coactivator 3 (Homo sapiens, UniProt P37231); type: functional;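 also: agonist potency for raising coactivator recruitment to the receptor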
[26] = molecular target: Peroxisome proliferator-activated receptor gamma/Nuclear receptor coactivator 1 (Homo sapiens, UniProt P37231); type: functional;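 also: agonist potency as compounds enhance coactivator SRC-1 recruitment to PPARgamma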

T5 sequence (Q92731 whole entry): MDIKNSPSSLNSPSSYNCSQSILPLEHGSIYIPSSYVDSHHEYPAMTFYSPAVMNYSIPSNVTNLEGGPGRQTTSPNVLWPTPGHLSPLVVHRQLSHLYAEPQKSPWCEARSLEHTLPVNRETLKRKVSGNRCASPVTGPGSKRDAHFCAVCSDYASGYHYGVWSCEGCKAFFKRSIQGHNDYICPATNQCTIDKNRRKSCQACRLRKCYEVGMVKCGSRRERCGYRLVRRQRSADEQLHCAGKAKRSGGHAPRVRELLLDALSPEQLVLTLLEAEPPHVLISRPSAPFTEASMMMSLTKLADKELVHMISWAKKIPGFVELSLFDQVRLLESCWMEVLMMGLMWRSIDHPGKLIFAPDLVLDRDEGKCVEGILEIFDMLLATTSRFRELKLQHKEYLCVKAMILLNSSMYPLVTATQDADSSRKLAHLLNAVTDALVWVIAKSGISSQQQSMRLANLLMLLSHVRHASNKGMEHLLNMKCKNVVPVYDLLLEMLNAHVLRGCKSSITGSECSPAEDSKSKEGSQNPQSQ
Peroxisome proliferator-activated receptor gamma/Nuclear receptor coactivator 3, sequence (P37231 whole entry): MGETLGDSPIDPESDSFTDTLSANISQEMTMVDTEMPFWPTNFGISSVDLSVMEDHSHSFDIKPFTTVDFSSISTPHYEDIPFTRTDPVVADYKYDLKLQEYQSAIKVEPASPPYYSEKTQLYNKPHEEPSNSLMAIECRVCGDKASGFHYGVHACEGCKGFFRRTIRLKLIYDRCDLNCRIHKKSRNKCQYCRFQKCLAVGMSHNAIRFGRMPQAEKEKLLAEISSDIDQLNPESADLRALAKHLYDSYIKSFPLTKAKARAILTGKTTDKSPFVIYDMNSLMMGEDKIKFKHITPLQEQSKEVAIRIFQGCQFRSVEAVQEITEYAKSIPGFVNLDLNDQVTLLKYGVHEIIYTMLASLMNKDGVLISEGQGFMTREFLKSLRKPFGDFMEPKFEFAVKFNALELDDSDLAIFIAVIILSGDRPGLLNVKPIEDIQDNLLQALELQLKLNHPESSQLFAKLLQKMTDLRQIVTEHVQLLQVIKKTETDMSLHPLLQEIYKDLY
Peroxisome proliferator-activated receptor gamma/Nuclear receptor coactivator 3, sequence (Q9Y6Q9 whole entry, further chain): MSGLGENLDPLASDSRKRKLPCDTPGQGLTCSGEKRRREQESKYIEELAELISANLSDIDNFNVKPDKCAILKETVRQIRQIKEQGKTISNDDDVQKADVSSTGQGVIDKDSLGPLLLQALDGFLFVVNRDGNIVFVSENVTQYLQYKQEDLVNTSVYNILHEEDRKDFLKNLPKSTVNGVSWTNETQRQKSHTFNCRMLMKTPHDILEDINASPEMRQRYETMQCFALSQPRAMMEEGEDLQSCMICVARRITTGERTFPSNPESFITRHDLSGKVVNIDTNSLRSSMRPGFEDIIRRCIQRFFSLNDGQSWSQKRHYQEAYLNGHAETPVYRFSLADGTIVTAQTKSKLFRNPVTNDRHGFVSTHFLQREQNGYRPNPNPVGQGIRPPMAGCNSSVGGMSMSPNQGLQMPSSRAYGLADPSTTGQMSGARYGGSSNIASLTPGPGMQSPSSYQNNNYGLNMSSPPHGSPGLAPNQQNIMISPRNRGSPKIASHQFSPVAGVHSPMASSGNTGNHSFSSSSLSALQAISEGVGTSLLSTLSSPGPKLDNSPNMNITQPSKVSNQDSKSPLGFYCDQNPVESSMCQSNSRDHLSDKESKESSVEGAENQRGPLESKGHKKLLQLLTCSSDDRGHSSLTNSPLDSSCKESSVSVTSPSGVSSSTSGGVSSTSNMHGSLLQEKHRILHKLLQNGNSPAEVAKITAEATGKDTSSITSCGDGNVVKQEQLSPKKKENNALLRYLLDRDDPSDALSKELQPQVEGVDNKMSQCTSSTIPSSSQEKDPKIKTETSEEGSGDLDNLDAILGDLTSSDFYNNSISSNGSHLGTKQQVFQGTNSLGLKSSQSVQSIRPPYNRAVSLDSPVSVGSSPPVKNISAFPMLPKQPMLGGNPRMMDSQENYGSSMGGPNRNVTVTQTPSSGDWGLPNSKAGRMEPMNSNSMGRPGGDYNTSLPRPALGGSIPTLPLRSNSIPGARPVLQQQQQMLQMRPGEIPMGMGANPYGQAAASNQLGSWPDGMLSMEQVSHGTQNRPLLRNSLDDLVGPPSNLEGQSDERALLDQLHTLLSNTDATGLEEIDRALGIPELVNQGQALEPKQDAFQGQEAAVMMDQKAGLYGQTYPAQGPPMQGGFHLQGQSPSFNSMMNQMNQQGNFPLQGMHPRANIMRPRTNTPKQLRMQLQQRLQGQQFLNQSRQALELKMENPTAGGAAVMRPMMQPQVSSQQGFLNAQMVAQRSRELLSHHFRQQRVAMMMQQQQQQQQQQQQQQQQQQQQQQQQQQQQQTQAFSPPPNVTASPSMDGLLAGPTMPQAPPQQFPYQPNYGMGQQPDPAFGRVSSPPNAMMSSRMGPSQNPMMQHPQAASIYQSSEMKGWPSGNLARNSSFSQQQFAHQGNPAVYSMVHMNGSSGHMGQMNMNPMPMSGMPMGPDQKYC
Peroxisome proliferator-activated receptor gamma/Nuclear receptor coactivator 2, sequence (P37231 whole entry): as the sequence (P37231 whole entry) above
Peroxisome proliferator-activated receptor gamma/Nuclear receptor coactivator 2, sequence (Q15596 whole entry, further chain): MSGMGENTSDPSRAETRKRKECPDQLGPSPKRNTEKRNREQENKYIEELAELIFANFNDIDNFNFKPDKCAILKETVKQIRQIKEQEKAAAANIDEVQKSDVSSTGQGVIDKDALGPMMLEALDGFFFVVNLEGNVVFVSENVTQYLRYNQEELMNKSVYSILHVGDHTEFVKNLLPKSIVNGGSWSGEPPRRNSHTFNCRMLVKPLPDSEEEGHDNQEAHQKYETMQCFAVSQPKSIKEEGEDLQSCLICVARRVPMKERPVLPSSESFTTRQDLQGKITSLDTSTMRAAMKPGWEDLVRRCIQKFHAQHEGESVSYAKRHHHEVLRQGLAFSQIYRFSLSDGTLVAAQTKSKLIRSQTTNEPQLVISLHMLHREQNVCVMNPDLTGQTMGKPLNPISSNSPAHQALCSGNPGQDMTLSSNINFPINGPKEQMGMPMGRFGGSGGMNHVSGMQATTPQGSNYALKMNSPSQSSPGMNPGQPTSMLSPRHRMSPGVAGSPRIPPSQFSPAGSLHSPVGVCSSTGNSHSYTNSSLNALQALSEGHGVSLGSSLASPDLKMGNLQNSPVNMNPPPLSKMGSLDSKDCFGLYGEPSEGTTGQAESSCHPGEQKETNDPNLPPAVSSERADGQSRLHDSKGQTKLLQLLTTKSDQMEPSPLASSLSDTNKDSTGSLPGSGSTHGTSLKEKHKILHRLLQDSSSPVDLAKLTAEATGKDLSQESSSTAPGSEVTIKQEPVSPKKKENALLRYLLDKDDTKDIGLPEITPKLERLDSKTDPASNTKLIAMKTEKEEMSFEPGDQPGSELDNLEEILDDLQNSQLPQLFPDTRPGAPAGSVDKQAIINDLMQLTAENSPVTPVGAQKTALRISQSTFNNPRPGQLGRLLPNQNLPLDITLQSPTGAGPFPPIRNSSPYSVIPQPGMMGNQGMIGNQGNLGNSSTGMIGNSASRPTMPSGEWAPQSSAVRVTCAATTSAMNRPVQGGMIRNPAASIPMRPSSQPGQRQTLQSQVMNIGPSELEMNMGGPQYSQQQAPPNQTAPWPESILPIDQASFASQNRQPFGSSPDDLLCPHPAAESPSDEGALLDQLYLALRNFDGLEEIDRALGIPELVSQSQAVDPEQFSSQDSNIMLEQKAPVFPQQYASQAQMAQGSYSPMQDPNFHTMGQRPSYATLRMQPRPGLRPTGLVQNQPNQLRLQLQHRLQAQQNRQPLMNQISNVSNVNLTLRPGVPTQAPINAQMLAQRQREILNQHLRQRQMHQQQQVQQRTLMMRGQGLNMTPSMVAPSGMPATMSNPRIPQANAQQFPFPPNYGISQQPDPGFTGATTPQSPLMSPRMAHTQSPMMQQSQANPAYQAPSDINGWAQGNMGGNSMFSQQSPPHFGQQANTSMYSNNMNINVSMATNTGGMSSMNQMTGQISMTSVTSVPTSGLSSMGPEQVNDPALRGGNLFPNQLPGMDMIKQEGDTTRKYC
Cytochrome P450 2D6, sequence (P10635 whole entry): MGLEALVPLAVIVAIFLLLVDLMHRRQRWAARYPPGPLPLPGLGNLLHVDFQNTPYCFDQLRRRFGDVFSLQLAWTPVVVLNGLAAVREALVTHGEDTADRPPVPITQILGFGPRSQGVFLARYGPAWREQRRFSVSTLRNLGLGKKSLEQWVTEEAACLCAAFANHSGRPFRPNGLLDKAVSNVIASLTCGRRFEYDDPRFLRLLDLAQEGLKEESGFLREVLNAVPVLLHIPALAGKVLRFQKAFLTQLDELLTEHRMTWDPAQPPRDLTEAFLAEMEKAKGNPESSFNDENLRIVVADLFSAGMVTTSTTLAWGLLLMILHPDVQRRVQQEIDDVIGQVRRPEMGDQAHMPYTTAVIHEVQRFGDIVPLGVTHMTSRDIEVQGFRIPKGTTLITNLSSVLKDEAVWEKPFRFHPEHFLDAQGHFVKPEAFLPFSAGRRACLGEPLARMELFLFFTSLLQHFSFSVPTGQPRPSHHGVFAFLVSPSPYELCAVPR

CSc1nc2n(n1)C(c1ccccn1)C1=C(O)CC(C)(C)CC1=N2 (configuration not stated)
IC50 [1]: > 100 µM (inactive)

CCCCN1C(=O)/C(=N\Nc2ccccc2C)c2ccccc21
IC50 [2]: 74.4 µM (active) | IC50 [3]: 78 µM (active)

Cc1ccc(C(=O)OCC(=O)N(CC(C)C)c2c(N)n(Cc3ccccc3)c(=O)[nH]c2=O)o1
IC50 [4]: > 80 µM (inactive)

Cc1ccc(Nc2ccccc2N)cc1
IC50 [5]: 21.9 µM (active) | IC50 [6]: 0.74 µM (active) | CC50 [7]: > 40 µM (active)

O=C(c1ccc(S(=O)(=O)c2ccccc2Cl)c([N+](=O)[O-])c1)N1CCN(Cc2ccccc2)CC1
IC50 [8]: 4.59 µM (active) | AC50 [9]: 50 µM (active) | IC50 [10]: > 20 µM (inactive) | IC50 [11]: 5.54 µM (active) | EC50 [12]: 11.8 µM (active) | IC50 [13]: 17.6 µM (active) | AC50 [14]: 5.77 µM (active) | IC50 [15]: 6.58 µM (active) | IC50 [16]: 3.65 µM (active) | AC50 [17]: 3.48 µM (active) | EC50 [18]: 12.9 µM (active) | IC50 [19]: 15.3 µM (active)

COc1cccc(/C=C/C2=CC3(C)CC2(C)C(c2cccc(OC)c2)CC3=O)c1 (configuration not stated)
AC50 [20]: 3.16 µM (inconclusive)

Cc1ccc(C)n1-c1sccc1C(=O)O
IC50 [21]: 46.9 µM (active) | IC50 [22]: 6.1 µM (not active) | IC50 [1]: 0.783 µM (active) | IC50 [23]: 4.48 µM (active)

Cc1ccc(/C=C2\SC(N)=NC2=O)s1
EC50 [24]: > 79.4 µM (not active) | EC50 [25]: > 79.4 µM (not active) | EC50 [26]: > 79.4 µM (not active)
